The Ki is a measure of affinity in units of concentration, obtained from inhibition or displacement. A lower Ki goes with higher affinity.

Experiment [1] deals with hCB2 receptors (Homo sapiens, UniProt P34972). Briefly: CB2 receptor radioligand binding, [3H]CP55,940, CHO-K1 hCB2 membranes. As to conditions: for interaction with CB2R: up to 100 μM.
For experiment [2] the following is noted: acute feeding model; cited from earlier work.
For experiment [3], the system named is AEA uptake. Briefly: AEA uptake assay, intact U937 cells. The class given is cell-based.
Experiment [4] has as its target T1, MAGL (Homo sapiens, UniProt Q99685).
T1 sequence (Q99685 1-303): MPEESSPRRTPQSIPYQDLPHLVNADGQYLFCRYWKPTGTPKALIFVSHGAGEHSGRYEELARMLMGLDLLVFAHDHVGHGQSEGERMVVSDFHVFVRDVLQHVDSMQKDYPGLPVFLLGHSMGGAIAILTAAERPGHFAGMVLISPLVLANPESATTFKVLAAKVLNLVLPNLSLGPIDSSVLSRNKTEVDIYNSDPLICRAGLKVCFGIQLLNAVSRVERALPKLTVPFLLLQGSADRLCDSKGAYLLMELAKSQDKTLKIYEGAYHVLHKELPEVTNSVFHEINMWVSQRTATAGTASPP
Briefly: MAGL activity assay, U937 cell homogenate. It counts as biochemical.

Experiment [5] addresses hCB1R (Homo sapiens, UniProt P21554). Briefly: CB1 receptor radioligand binding, [3H]CP55,940, CHO-K1 hCB1R membranes. As to conditions: for increase of [3H]CP55,940 binding at CB1R: maximal increase over vehicle.

Sequence of hCB1R (P21554 whole entry): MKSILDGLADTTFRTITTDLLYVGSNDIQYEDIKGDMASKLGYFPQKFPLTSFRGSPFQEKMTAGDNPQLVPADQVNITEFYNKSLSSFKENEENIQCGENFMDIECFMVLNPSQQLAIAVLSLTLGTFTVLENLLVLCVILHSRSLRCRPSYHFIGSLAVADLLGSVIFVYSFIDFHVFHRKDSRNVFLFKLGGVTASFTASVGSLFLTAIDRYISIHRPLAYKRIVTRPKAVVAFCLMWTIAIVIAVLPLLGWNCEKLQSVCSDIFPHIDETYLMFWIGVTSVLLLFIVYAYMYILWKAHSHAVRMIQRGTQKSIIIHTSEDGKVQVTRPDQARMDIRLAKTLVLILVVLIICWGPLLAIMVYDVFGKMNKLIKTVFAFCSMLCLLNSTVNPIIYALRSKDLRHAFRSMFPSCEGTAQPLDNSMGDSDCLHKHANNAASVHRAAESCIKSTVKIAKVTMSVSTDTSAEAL
Sequence of hCB2 receptors (P34972 whole entry): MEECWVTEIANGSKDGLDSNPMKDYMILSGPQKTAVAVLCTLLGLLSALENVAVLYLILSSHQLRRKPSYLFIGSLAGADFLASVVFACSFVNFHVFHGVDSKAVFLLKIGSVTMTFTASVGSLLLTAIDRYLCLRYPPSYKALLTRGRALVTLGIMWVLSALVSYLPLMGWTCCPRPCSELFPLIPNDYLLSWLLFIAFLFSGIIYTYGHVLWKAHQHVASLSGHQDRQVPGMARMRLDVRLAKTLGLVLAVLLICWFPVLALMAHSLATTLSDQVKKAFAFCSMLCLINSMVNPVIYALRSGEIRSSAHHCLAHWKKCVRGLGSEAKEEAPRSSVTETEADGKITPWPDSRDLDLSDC

Consider `O=C(Nc1ccc(Cl)cc1)Nc1cccc(Nc2cccc(N3CCCC3)c2)c1` [FG45a, 1-(4-Chlorophenyl)-3-(3-{[3-(pyrrolidin-1-yl)phenyl]amino}phenyl)urea], for which, in experiment [1], the “interaction with CB2R” value is “did not significantly interact”.
As for `O=C(Nc1ccc(Cl)cc1)Nc1cccc(-c2cccc(N3CCCC3)n2)c1` [PSNCBAM-1, 1-(4-Chlorophenyl)-3-{3-[6-(pyrrolidin-1-yl)pyridin-2-yl]phenyl}urea], the “binding to CB2R” value in experiment [1] (up to 10 μM) is “did not show any significant binding”. For the same molecule, the “food intake and body weight” value in experiment [2] is “decrease food intake and body weight”. The “AEA cell uptake result in words” value in experiment [3] was “negative”. Moreover, in experiment [4], the “MAGL result in words” value is reported as “negative”. In addition, the “increase of [3H]CP55,940 binding at CB1R” value in experiment [5] is 15–20%.
For the molecule `O=C(Nc1ccc(Cl)cc1)Nc1cccc(-c2cccc(N3CCCC3)c2)c1` [SC4a, 1-(4-Chlorophenyl)-3-[3′-(pyrrolidin-1-yl)biphenyl-3-yl]urea], the “increase of [3H]CP55,940 binding at CB1R” value in experiment [5] is on record as 15–20%.
On to `O=C(Cc1ccc(Cl)cc1)Nc1cccc(-c2cccc(N3CCCC3)c2)c1` [SC33, 2-(4-Chlorophenyl)-N-[3′-(pyrrolidin-1-yl)biphenyl-3-yl]acetamide], for which, in experiment [1], the Ki was roughly 50 µM. In experiment [5] (at 100 μM), the “binding to CB1R” value was “approx. 10%”. Further, in experiment [5] (up to 10 μM), the “influence on [3H]CP55,940 binding to CB1R” value is given as “does not influence”.
Regarding `O=C(Nc1ccc(Cl)cc1)Nc1cccc(Nc2cccc(N3CCCC3)n2)c1` [SN15b], the “interaction with CB2R” value in experiment [1] was “did not significantly interact”.

These data come from article PMC5794004 (Bioorganic & medicinal chemistry, 2017).
